# Experimental data reported in ChEMBL document CHEMBL4261613, “Discovery of a potent orally bioavailable retinoic acid receptor-related orphan receptor-gamma-t (RORγt) inhibitor, S18-000003” (Bioorg Med Chem Lett, 2018).
# How the values were obtained:
# [1] = Solubility of the compound in NaCl/HCl buffer at pH 1.2 by shake-flask method; assay type: physicochemical
# [2] = target: T1, Nuclear receptor ROR-gamma (Mus musculus, UniProt P51450); assay: Transrepression of RORgammat in anti-CD3/CD28 stimulated C57BL/6 mouse CD4-positive T cells assessed as suppression of T cell differentiation to Th17 cells by measuring reduction in IL-17A level after 4 days by ELISA
# T1 sequence (P51450 whole entry): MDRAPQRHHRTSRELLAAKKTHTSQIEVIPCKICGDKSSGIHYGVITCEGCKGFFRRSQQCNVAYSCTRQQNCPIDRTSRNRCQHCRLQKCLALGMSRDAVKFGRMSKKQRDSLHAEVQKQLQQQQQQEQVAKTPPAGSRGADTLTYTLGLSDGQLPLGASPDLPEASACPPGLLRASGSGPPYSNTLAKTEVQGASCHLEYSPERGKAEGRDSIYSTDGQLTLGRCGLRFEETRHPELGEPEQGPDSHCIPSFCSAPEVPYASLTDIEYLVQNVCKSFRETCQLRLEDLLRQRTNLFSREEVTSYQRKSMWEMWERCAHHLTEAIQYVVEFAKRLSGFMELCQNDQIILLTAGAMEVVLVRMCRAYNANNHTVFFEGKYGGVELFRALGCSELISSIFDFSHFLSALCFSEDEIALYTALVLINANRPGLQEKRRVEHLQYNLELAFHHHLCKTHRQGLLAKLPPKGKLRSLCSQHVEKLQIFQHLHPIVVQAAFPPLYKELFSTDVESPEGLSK
# [3] = Fraction unbound in rat plasma at 1 mg/kg, po; assay type: ADME, organism-based
# [4] = target: T2, Oxysterols receptor LXR-alpha (Homo sapiens, UniProt Q13133); assay: Transrepression of recombinant human GAL4-DBD fused LXRalpha LBD expressed in HEK293 cells after 20 hrs by luciferase reporter gene assay; assay type: cell-based
# T2 sequence (Q13133 whole entry): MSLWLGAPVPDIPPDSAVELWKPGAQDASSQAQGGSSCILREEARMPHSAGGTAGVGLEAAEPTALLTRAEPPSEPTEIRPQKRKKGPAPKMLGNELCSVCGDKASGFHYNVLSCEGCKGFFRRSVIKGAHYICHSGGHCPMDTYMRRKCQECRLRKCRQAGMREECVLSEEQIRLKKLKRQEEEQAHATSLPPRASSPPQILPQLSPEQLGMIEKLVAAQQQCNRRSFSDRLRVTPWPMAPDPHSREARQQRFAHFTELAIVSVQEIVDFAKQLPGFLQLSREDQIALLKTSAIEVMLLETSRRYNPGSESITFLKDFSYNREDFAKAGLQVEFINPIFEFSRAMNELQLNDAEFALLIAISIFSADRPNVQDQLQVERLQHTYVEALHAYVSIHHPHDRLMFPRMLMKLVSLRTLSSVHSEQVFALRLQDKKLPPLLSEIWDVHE
# [5] = AUC in rat at 0.5 mg/kg, iv; assay type: ADME, organism-based; conditions: in vivo
# [6] = target: T3, Oxysterols receptor LXR-beta (Homo sapiens, UniProt P55055); assay: Transrepression of recombinant human GAL4-DBD fused LXRbeta LBD expressed in HEK293 cells after 20 hrs by luciferase reporter gene assay; assay type: cell-based
# T3 sequence (P55055 whole entry): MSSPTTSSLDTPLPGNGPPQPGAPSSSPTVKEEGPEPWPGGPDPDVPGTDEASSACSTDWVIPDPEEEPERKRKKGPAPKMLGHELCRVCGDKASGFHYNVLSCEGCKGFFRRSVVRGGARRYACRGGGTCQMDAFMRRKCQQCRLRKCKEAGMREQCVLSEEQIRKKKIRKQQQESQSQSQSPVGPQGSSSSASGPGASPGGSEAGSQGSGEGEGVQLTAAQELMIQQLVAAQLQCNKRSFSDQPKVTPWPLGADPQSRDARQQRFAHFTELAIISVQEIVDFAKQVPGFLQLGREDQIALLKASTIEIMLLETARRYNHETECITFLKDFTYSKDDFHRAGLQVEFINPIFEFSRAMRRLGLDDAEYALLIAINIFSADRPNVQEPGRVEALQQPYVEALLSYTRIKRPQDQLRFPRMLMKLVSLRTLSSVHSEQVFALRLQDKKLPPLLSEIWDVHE
# [7] = target: T4, Nuclear receptor ROR-gamma (Homo sapiens) (UniProt P51449); assay: (§1) Transrepression of recombinant human GAL4-DBD fused RORgammat LBD expressed in HEK293 cells after 20 hrs by luciferase reporter gene assay; assay type: cell-based
# T4 sequence (whole entry): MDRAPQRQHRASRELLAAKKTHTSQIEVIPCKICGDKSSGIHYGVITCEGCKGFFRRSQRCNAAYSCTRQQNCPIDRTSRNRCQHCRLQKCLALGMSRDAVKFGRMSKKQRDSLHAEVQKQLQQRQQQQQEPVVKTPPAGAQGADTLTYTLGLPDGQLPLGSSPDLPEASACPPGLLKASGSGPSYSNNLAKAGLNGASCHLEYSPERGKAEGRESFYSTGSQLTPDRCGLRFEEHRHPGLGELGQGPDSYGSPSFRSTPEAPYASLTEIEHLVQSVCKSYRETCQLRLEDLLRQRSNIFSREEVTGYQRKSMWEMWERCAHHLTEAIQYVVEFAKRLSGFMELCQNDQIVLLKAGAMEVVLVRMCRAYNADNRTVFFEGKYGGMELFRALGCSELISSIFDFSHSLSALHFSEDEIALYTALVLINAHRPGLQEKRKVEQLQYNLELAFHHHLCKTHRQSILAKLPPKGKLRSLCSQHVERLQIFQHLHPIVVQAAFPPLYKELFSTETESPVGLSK
# [8] = target: T5, Nuclear receptor ROR-gamma (Homo sapiens, UniProt P51449); assay: as §1; assay type: cell-based
# T5 sequence (P51449 whole entry): T4 sequence (whole entry)
# [9] = target: T1, Nuclear receptor ROR-gamma; assay: (§2) Transrepression of recombinant mouse GAL4-DBD fused RORgammat LBD expressed in HEK293 cells after 20 hrs by luciferase reporter gene assay; assay type: cell-based
# [10] = target: T6, Nuclear receptor ROR-gamma (Mus musculus) (UniProt P51450); assay: as §2; assay type: cell-based
# T6 sequence (whole entry): T1 sequence (P51450 whole entry)
# [11] = Stability in rat liver microsomes assessed as parent compound remaining after 2 hrs by LC-MS/MS analysis; assay type: ADME, microsome; conditions: read-out: Stability
# [12] = Stability in human liver microsomes assessed as parent compound remaining after 2 hrs by LC-MS/MS analysis; assay type: ADME, microsome; conditions: read-out: Stability
# [13] = Cmax in rat at 1 mg/kg, po; assay type: ADME, organism-based; design: dose 1 mg/kg, route oral; conditions: in vivo
solubility thermodynamic [1] [µM],IC50 [2] [nM],fraction unbound [3],EC50 [4] [nM],AUC [5] [ng·h/mL],EC50 [6] [nM],Efficacy [7] [%],IC50 [8] [nM],IC50 [9] [nM],Efficacy [10] [%],remaining at 2 h [11] [%],remaining at 2 h [12] [%],Cmax [13] [ng/mL],SMILES
30,68,0.051,> 30000,556,> 30000,95,16,74,88,71,82,33.3,CCS(=O)(=O)c1ccc(CC(=O)Nc2ccc(C(C)(C)C(=O)Nc3cc(C#N)ccn3)c(F)c2)cc1
26,420,0.036,> 30000,986,> 30000,95,25,250,85,77,63,85.3,CCS(=O)(=O)c1ccc(CC(=O)Nc2ccc(C(C)(C)C(=O)Nc3ccc(F)cc3)c(F)c2)cc1
29,200,0.034,> 30000,1930,> 30000,100,29,340,85,89,95,185,CCS(=O)(=O)c1ccc(CC(=O)Nc2ccc(C(C)(C)C(=O)Nc3ccc(F)cc3F)c(F)c2)cc1
